Assays:
[1] = DRUGMATRIX: GABAA, Flunitrazepam, Central radioligand binding (ligand: [3H] Flunitrazepam); type: cell membranes, Rattus norvegicus, Wistar, Brain, Membrane; settings: Not Active = under 50% inhibition at 10 µM
Caspase-1 = target: T1, Caspase-1 (Homo sapiens, UniProt P29466); design: species or system Escherichia coli;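 note: Caspase-1 enzyme inhibition assay with a peptide substrate; in other assays of this panel Not Active means under 50% inhibition at 10 µM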
T1 sequence (P29466 whole entry): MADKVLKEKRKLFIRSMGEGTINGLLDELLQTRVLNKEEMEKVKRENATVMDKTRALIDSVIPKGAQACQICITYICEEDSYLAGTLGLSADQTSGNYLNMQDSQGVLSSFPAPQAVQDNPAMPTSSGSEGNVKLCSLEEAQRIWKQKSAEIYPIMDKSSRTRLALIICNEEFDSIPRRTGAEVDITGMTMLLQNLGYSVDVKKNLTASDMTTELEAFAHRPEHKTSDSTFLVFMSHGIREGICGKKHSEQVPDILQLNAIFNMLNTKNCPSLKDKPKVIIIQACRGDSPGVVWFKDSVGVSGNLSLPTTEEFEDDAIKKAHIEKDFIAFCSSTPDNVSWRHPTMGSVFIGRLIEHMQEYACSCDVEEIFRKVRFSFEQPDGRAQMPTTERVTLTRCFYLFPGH

[2] = target: T2, 5-hydroxytryptamine receptor 1A (Rattus norvegicus, UniProt P19327); type: cell membranes, CHO-K1, Membrane; settings: cho-k1; note: in other assays of this panel Not Active means under 50% inhibition at 10 µM
T2 sequence (P19327 whole entry): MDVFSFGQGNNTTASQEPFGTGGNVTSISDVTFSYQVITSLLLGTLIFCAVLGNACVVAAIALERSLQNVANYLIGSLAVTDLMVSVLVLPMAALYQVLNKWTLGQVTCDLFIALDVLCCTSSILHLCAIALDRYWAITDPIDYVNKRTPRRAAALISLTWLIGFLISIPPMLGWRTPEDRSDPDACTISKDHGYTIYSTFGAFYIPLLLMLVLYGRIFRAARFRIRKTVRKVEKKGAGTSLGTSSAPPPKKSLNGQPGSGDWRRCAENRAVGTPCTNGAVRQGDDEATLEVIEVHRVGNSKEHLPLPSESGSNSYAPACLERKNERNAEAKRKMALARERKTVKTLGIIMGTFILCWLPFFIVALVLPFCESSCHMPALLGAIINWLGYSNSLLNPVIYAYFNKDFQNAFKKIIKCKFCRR

[3] = DRUGMATRIX: Imidazoline I2, Central radioligand binding (ligand: [3H] Idazoxan); type: cell membranes, Rattus norvegicus, Wistar, Cerebral cortex, Membrane; settings: Not Active = under 50% inhibition at 10 µM
D(1A) dopamine receptor = D(1A) dopamine receptor (Homo sapiens, UniProt P21728); assay: DRUGMATRIX: Dopamine D1 radioligand binding (ligand: [3H] SCH-23390); type: cell membranes, CHO, Membrane; settings: cho; Not Active = under 50% inhibition at 10 µM
[4] = target: Sigma non-opioid intracellular receptor 1 (Homo sapiens, UniProt Q99720); assay: DRUGMATRIX: Sigma1 radioligand binding (ligand: [3H] Haloperidol); type: cell membranes, Jurkat, Membrane; settings: jurkat; Not Active = under 50% inhibition at 10 µM
Chain of Sigma non-opioid intracellular receptor 1 (Q99720 whole entry): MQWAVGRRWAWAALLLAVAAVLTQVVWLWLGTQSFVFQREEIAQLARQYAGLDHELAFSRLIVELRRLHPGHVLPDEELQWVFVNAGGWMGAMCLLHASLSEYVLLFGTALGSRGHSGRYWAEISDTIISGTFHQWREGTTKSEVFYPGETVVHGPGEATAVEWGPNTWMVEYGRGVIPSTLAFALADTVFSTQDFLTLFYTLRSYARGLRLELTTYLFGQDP

Chain of D(1A) dopamine receptor (P21728 whole entry): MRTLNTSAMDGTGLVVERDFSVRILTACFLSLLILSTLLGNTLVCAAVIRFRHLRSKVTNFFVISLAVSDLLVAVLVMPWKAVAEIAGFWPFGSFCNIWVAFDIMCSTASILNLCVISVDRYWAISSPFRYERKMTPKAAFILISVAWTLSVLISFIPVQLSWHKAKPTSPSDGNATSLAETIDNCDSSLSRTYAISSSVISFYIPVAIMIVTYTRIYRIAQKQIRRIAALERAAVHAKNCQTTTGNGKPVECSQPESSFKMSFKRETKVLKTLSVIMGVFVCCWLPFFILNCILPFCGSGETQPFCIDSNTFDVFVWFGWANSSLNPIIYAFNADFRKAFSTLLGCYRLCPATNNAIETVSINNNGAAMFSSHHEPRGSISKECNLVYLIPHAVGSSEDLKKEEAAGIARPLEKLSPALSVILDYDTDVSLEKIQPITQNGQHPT

SMILES: CCC1(c2ccc(N)cc2)CCC(=O)NC1=O (configuration not stated) [AMINOGLUTETHIMIDE]
- IC50 [1]: Not Active
- Ki [1]: Not Active
- IC50 (Caspase-1): Not Active
- IC50 [2]: Not Active
- IC50 [3]: Not Active
- Ki [3]: Not Active
- IC50 (D(1A) dopamine receptor): Not Active
- IC50 [4]: Not Active

SMILES: Cc1ccc(/N=C/N(C)/C=N/c2ccc(C)cc2C)c(C)c1 [AMITRAZ]
- IC50 [1]: Not Active
- Ki [1]: Not Active
- IC50 (Caspase-1): Not Active
- IC50 [2]: Not Active
- IC50 ([3]; read-out: IC50): 47.7 nM
- Ki ([3]; read-out: Ki): 31.8 nM
- IC50 (D(1A) dopamine receptor): Not Active
- IC50 [4]: Not Active

SMILES: Cc1ccc(N(CC2=NCCN2)c2cccc(O)c2)cc1 [PHENTOLAMINE]
- IC50 [1]: Not Active
- Ki [1]: Not Active
- IC50 (Caspase-1): Not Active
- IC50 [2]: Not Active
- IC50 ([3]; read-out: IC50): 58 nM
- Ki ([3]; read-out: Ki): 39 nM
- IC50 (D(1A) dopamine receptor): Not Active
- IC50 [4]: Not Active

SMILES: CNNCc1ccc(C(=O)NC(C)C)cc1 [PROCARBAZINE]
- IC50 [1]: Not Active
- Ki [1]: Not Active
- IC50 (Caspase-1): Not Active
- IC50 [2]: Not Active
- IC50 [3]: Not Active
- Ki [3]: Not Active
- IC50 (D(1A) dopamine receptor): Not Active
- IC50 [4]: Not Active

SMILES: CN(C)c1nc(N(C)C)nc(N(C)C)n1 [ALTRETAMINE]
- IC50 [1]: Not Active
- Ki [1]: Not Active
- IC50 (Caspase-1): Not Active
- IC50 [2]: Not Active
- IC50 [3]: Not Active
- Ki [3]: Not Active
- IC50 (D(1A) dopamine receptor): Not Active
- IC50 [4]: Not Active

SMILES: OC(Cn1cncn1)(Cn1cncn1)c1ccc(F)cc1F [FLUCONAZOLE]
- IC50 [1]: Not Active
- Ki [1]: Not Active
- IC50 (Caspase-1): Not Active
- IC50 [2]: Not Active
- IC50 [3]: Not Active
- Ki [3]: Not Active
- IC50 (D(1A) dopamine receptor): Not Active
- IC50 [4]: Not Active

SMILES: C[C@]12CCC(=O)C=C1CC[C@@H]1[C@@H]2CC[C@@]2(C)[C@H]1CC[C@]2(C)O [METHYLTESTOSTERONE]
- IC50 [1]: Not Active
- Ki [1]: Not Active
- IC50 (Caspase-1): Not Active
- IC50 [2]: Not Active
- IC50 [3]: Not Active
- Ki [3]: Not Active
- IC50 (D(1A) dopamine receptor): Not Active
- IC50 [4]: Not Active

SMILES: O=c1oc2ccccc2c(O)c1Cc1c(O)c2ccccc2oc1=O [DICUMAROL]
- IC50 [1]: Not Active
- Ki [1]: Not Active
- IC50 (Caspase-1): Not Active
- IC50 [2]: Not Active
- IC50 [3]: Not Active
- Ki [3]: Not Active
- IC50 (D(1A) dopamine receptor): Not Active
- IC50 [4]: Not Active

SMILES: N=C(N)NCCN1CCCCCCC1 [GUANETHIDINE]
- IC50 [1]: Not Active
- Ki [1]: Not Active
- IC50 (Caspase-1): Not Active
- IC50 [2]: Not Active
- IC50 [3]: Not Active
- Ki [3]: Not Active
- IC50 (D(1A) dopamine receptor): Not Active
- IC50 [4]: Not Active

SMILES: Cc1cc(C2CCCCC2)n(O)c(=O)c1 [CICLOPIROX]
- IC50 [1]: Not Active
- Ki [1]: Not Active
- IC50 (Caspase-1): Not Active
- IC50 [2]: Not Active
- IC50 [3]: Not Active
- Ki [3]: Not Active
- IC50 (D(1A) dopamine receptor): Not Active
- IC50 [4]: Not Active

SMILES: CCOc1ccc(NC(C)=O)cc1 [PHENACETIN]
- IC50 [1]: Not Active
- Ki [1]: Not Active
- IC50 (Caspase-1): Not Active
- IC50 [2]: Not Active
- IC50 [3]: Not Active
- Ki [3]: Not Active
- IC50 (D(1A) dopamine receptor): Not Active
- IC50 [4]: Not Active

SMILES: NC1=NC(=O)C(c2ccccc2)O1 (configuration not stated) [PEMOLINE]
- IC50 [1]: Not Active
- Ki [1]: Not Active
- IC50 (Caspase-1): Not Active
- IC50 [2]: Not Active
- IC50 [3]: Not Active
- Ki [3]: Not Active
- IC50 (D(1A) dopamine receptor): Not Active
- IC50 [4]: Not Active

SMILES: C[C@H](CCC(=O)O)[C@H]1CC[C@H]2[C@@H]3[C@H](O)C[C@@H]4C[C@H](O)CC[C@]4(C)[C@H]3C[C@H](O)[C@]12C [CHOLIC ACID]
- IC50 [1]: Not Active
- Ki [1]: Not Active
- IC50 (Caspase-1): Not Active
- IC50 [2]: Not Active
- IC50 [3]: Not Active
- Ki [3]: Not Active
- IC50 (D(1A) dopamine receptor): Not Active
- IC50 [4]: Not Active

SMILES: CC(C)C(Br)C(=O)NC(N)=O (configuration not stated) [BROMISOVALUM]
- IC50 [1]: Not Active
- Ki [1]: Not Active
- IC50 (Caspase-1): Not Active
- IC50 [2]: Not Active
- IC50 [3]: Not Active
- Ki [3]: Not Active
- IC50 (D(1A) dopamine receptor): Not Active
- IC50 [4]: Not Active
